Measurements published in US10689378B2, “Triazolopyridine compounds and uses thereof” (Novartis AG, priority 2016, dated 2020).
pIC50: −log10 of the molar value.

Experiments:
[1] = test system: H3K27 methylation in G401 cell; assay: ELISA (H3K27 methylation) assay in G401 cells; type: cell-based, human; details: Homo sapiens, G-401, H3K27 methylation ELISA, read-out: (c) IC50 ELISA Qualified
Outline: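 G401 cells treated 48 h with 3-fold dilutions (8 or 12 points, top 20 μM). Acid-extracted histones probed by ELISA for H3K27me3 or H3K27me2 with ECL readout, normalized to total H3. Percent inhibition versus DMSO fitted to dose-response curve for IC50.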

[2] = target: T1, EED (1-441)-His protein (Homo sapiens, UniProt O75530); assay: EED-H3K27Me3 peptide competition binding assay by AlphaScreen; details: EED-H3K27Me3 peptide competition, AlphaScreen; read-out: (a) IC50 EED Alphascreen binding Qualified
T1 construct: 30 nM EED (1-441)-His protein
T1 sequence (O75530 whole entry): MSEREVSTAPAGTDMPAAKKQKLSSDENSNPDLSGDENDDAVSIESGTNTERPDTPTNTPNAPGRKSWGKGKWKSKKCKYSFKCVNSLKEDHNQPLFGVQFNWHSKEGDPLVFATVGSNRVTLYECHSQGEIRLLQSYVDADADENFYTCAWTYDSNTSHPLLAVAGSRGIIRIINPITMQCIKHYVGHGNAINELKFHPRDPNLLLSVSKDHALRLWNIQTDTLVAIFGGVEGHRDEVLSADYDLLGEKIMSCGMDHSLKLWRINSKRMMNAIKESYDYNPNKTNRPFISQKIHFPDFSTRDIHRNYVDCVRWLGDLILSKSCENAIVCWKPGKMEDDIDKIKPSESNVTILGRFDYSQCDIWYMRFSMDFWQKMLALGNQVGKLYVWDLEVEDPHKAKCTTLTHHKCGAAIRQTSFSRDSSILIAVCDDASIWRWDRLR
Outline: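 Serially diluted compound (12 points, 3-fold) incubated 20 min with 30 nM EED(1-441)-His and 15 nM biotin-H3K27Me3(19-33) peptide in 25 mM HEPES pH 8, 0.02% Tween-20, 0.5% BSA. Ni-chelate acceptor/streptavidin donor beads (10 μg/mL each) added, 1 h rt dark; 615 nm emission normalized to controls, dose-response fit for IC50.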

[3] = target: wild type PRC2 (wtPRC2) complex (Homo sapiens, UniProt O75530); assay: EED LC-MS assay (SAH production by PRC2); type: biochemical; details: PRC2 LC-MS assay; read-out: (b) IC50 EED LC-MS Qualified
wild type PRC2 (wtPRC2) complex, sequence (O75530 whole entry): as above
wild type PRC2 (wtPRC2) complex, sequence (Q15910 whole entry partner): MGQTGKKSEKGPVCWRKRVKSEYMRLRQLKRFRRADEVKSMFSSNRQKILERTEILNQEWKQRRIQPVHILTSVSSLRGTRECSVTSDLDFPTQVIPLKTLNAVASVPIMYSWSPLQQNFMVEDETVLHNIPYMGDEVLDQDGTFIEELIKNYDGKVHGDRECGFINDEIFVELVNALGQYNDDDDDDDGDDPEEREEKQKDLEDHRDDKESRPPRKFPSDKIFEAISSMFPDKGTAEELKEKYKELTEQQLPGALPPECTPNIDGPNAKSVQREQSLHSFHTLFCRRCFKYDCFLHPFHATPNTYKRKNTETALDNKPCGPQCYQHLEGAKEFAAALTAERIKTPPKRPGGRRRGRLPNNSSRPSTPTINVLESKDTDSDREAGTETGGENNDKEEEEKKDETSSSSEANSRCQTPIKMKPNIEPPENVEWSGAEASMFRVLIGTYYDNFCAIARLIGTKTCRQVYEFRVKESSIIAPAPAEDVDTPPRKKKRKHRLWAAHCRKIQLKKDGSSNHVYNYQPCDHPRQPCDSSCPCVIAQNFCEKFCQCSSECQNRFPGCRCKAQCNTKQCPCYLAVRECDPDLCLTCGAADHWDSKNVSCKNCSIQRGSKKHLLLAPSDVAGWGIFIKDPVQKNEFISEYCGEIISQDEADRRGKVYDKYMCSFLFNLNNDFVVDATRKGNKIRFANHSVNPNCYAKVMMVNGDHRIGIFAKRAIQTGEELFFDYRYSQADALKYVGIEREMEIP
wild type PRC2 (wtPRC2) complex, sequence (Q15022 whole entry partner): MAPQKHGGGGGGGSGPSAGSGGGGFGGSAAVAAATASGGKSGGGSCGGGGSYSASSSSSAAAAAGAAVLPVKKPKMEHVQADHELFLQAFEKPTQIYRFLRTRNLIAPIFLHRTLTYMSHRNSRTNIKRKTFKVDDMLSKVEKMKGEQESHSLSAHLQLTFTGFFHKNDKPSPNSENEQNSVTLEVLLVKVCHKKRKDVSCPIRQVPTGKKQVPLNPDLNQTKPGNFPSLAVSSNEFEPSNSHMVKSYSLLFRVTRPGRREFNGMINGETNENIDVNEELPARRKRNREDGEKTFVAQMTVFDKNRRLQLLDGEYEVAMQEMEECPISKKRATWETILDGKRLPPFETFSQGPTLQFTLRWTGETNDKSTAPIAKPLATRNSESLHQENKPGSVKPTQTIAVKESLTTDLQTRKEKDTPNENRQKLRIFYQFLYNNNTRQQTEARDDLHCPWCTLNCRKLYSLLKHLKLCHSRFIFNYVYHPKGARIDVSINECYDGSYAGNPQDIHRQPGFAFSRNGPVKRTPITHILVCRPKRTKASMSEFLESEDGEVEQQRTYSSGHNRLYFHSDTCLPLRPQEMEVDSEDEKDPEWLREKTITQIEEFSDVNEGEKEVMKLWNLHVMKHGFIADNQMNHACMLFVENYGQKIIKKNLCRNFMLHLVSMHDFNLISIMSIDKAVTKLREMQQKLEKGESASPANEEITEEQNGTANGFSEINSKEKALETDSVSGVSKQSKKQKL
wild type PRC2 (wtPRC2) complex, sequence (Q09028 whole entry partner): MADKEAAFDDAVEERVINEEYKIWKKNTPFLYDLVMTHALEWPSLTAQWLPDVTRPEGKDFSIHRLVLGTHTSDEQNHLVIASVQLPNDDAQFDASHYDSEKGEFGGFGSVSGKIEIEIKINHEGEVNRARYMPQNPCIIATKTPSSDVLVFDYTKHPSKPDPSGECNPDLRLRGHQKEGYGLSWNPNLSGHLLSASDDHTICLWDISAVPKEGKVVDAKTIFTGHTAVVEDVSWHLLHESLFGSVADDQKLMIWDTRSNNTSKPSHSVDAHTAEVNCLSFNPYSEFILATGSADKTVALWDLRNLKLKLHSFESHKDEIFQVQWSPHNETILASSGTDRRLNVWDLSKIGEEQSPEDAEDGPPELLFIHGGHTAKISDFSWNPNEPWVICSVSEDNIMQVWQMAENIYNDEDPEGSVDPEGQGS
wild type PRC2 (wtPRC2) complex, sequence (Q6ZN18 whole entry partner): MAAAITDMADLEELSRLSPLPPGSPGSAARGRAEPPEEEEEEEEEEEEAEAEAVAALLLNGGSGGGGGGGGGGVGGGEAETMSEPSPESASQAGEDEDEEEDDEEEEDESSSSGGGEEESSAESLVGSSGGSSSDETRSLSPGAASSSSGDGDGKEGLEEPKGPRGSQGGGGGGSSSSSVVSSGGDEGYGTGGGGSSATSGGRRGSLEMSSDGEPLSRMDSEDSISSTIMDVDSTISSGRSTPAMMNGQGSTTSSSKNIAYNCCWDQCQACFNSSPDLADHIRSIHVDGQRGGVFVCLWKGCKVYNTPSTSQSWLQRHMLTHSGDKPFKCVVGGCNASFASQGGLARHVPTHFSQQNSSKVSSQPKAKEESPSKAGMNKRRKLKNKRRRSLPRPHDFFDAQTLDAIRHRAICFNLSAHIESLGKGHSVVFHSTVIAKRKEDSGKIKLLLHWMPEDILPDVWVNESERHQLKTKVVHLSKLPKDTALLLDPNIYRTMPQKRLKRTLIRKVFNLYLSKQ
Outline: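 Pentameric PRC2 (EZH2, SUZ12, EED, Rbap48, AEBP), 12 nM final, preincubated 20 min with compound and SAM, then 1.5 μM biotinylated H3K27me0 peptide, 1 μM SAM, pH 8.0, 120 min at rt. SAH quantified by LC-MS/MS with d4-SAH; control-normalized activity fitted for IC50.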

| SMILES | pIC50 [1] | pIC50 [2] | pIC50 [3] |
| --- | --- | --- | --- |
| COc1cccc(F)c1CNc1ccc(-c2cccnc2CF)c2nncn12 [Example 294, N-(2-fluoro-6-methoxybenzyl)-8-(2-(fluoromethyl)pyridin-3-yl)-[1,2,4] triazolo[4,3-a]pyridin-5-amine] | 8.03 | 7.62 | 6.93 |
| COc1cc(F)cc(F)c1CNc1ccc(-c2ccc(C(=O)N(C)C)cc2C)c2nncn12 [Example 295, 4-(5-((2,4-difluoro-6-methoxybenzyl)amino)-[1,2,4]triazolo[4,3-a]pyridin-8-yl)-N,N,3-trimethyl benzamide] | 7.91 | 7.51 | 6.49 |
| COc1cc(F)cc(F)c1CNc1ccc(-c2ccnn2C)c2nncn12 [Example 296, N-(2,4-difluoro-6-methoxybenzyl)-8-(1-methyl-1H-pyrazol-5-yl)-[1,2,4] triazolo[4,3-a]pyridin-5-amine] | 8.29 | 7.89 | 6.90 |
| COc1cc(F)cc(F)c1CNc1ccc(-c2ccncc2C)c2nncn12 [Example 297, N-(2,4-difluoro-6-methoxybenzyl)-8-(3-methylpyridin-4-yl)-[1,2,4]triazolo[4,3-a] pyridin-5-amine] | 7.76 | 7.37 | 6.21 |
| CCc1ncccc1-c1ccc(NCc2c(F)cc(F)cc2OC)n2cnnc12 [Example 298, N-(2,4-difluoro-6-methoxybenzyl)-8-(2-ethylpyridin-3-yl)-[1,2,4]triazolo[4,3-a] pyridin-5-amine] | 7.06 | 7.17 | 6.44 |
| COc1cc(F)cc(F)c1CNc1ccc(-c2cncnc2C)c2nncn12 [Example 299, N-(2,4-difluoro-6-methoxybenzyl)-8-(4-methylpyrimidin-5-yl)-[1,2,4] triazolo[4,3-a]pyridin-5-amine] | 7.92 | 7.56 | 7.18 |
| COc1cc(F)cc(F)c1CNc1ccc(-c2cccnc2C(F)F)c2nncn12 [Example 302, N-(2,4-difluoro-6-methoxybenzyl)-8-(2-(difluoromethyl)pyridin-3-yl)-[1,2,4]triazolo[4,3-a]pyridin-5-amine] | 8.01 | 7.88 | 7.41 |
| COc1cccc(F)c1CNc1ccc(-c2cccnc2CO)c2nncn12 [Example 303, (3-(5-((2-fluoro-6-methoxy benzyl)amino)-[1,2,4]triazolo[4,3-a]pyridin-8-yl)pyridin-2-yl)methanol] | 7.81 | 7.56 | 7.69 |
| COc1cccc(F)c1CNc1ccc(-c2cn(CCO)nc2C(F)(F)F)c2nncn12 [Example 312, 2-(4-(5-((2-fluoro-6-methoxybenzyl)amino)-[1,2,4]triazolo[4,3-a]pyridin-8-yl)-3-(trifluoromethyl)-1H-pyrazol-1-yl)ethanol] | 7.65 | 7.51 | 6.77 |
| COc1cc(F)cc(F)c1CNc1ccc(-c2ccc(C)nc2C(F)F)c2nncn12 [Example 314, N-(2,4-difluoro-6-methoxybenzyl)-8-(2-(difluoromethyl)-6-methylpyridin-3-yl)-[1,2,4]triazolo [4,3-a]pyridin-5-amine] | 7.73 | 7.65 | 6.96 |
| COc1cc(F)cc(F)c1CNc1ccc(-c2cnc(C)cc2C(F)F)c2nncn12 [Example 317, N-(2,4-difluoro-6-methoxybenzyl)-8-(4-(difluoromethyl)-6-methylpyridin-3-yl)-[1,2,4]triazolo [4,3-a]pyridin-5-amine] | 7.27 | 7.45 | 6.66 |
| COc1ccc(-c2ccc(NCc3c(F)cc(F)cc3OC)n3cnnc23)c(C)n1 [Example 319, N-(2,4-difluoro-6-methoxybenzyl)-8-(6-methoxy-2-methylpyridin-3-yl)-[1,2,4] triazolo[4,3-a]pyridin-5-amine] | 7.39 | 7.55 | 6.89 |
| COc1ncc(-c2ccc(NCc3c(F)cc(F)cc3OC)n3cnnc23)c(C)n1 [Example 323, N-(2,4-difluoro-6-methoxybenzyl)-8-(2-methoxy-4-methylpyrimidin-5-yl)-[1,2,4]triazolo[4,3-a]pyridin-5-amine] | 7.84 | 7.61 | 7.51 |
| COc1cc(F)cc(F)c1CNc1ccc(-c2ccc(C#N)nc2C)c2nncn12 [Example 324, 5-(5-((2,4-difluoro-6-methoxybenzyl)amino)-[1,2,4]triazolo[4,3-a]pyridin-8-yl)-6-methylpicolinonitrile] | 7.80 | 7.75 | 7.20 |
| COc1cccc(F)c1CNc1ccc(-c2cnccn2)c2nncn12 [Example 325, N-(2-fluoro-6-methoxybenzyl)-8-(pyrazin-2-yl)-[1,2,4]triazolo[4,3-a]pyridin-5-amine] | 7.47 | 7.43 | 6.85 |
| COc1c(F)ccc(F)c1CNc1ccc(-c2cccnc2C)c2nncn12 [Example 327, N-(3,6-difluoro-2-methoxybenzyl)-8-(2-methylpyridin-3-yl)-[1,2,4]triazolo[4,3-a] pyridin-5-amine] | 7.28 | 7.32 | 6.76 |

Next, values leading:

| pIC50 [1] | pIC50 [2] | pIC50 [3] | SMILES |
| --- | --- | --- | --- |
| 8.19 | 7.63 | 7.03 | COc1cccc(F)c1CNc1ccc(-c2cnc(S(C)(=O)=O)cc2C(F)F)c2nncn12 [Example 301, 8-(4-(difluoromethyl)-6-(methylsulfonyl)pyridin-3-yl)-N-(2-fluoro-6-methoxybenzyl)-[1,2,4]triazolo[4,3-a] pyridin-5-amine] |
| 7.74 | 7.58 | 7.32 | COc1cccc(F)c1CNc1ccc(-c2cnc(OC(F)F)cc2C)c2nncn12 [Example 304, 8-(6-(difluoromethoxy)-4-methylpyridin-3-yl)-N-(2-fluoro-6-methoxybenzyl)-[1,2,4]triazolo[4,3-a]pyridin-5-amine] |
| 7.55 | 7.28 | 7.02 | COc1cccc(F)c1CNc1ccc(-c2cc(C)ncc2C)c2nncn12 [Example 305, 8-(2,5-dimethylpyridin-4-yl)-N-(2-fluoro-6-methoxybenzyl)-[1,2,4]triazolo[4,3-a] pyridin-5-amine] |
| 7.81 | 7.51 | 7.38 | COc1cccc(F)c1CNc1ccc(-c2cc(C(F)F)ncc2C)c2nncn12 [Example 306, 8-(2-(difluoromethyl)-5-methylpyridin-4-yl)-N-(2-fluoro-6-methoxybenzyl)-[1,2,4]triazolo[4,3-a]pyridin-5-amine] |
| 7.76 | 7.73 | 6.93 | COc1cc(C)c(-c2ccc(NCc3c(F)cccc3OC)n3cnnc23)cn1 [Example 308, N-(2-fluoro-6-methoxybenzyl)-8-(6-methoxy-4-methylpyridin-3-yl)-[1,2,4] triazolo[4,3-a]pyridin-5-amine] |
| 7.94 | 7.80 | 7.22 | COc1cccc(F)c1CNc1ccc(-c2ccc(O)nc2C)c2nncn12 [Example 309, 5-(5-((2-fluoro-6-methoxybenzyl)amino)-[1,2,4]triazolo[4,3-a]pyridin-8-yl)-6-methylpyridin-2-ol] |
| 7.78 | 7.87 | 7.25 | COc1ccc(-c2ccc(NCc3c(F)cccc3OC)n3cnnc23)c(C)n1 [Example 310, N-(2-fluoro-6-methoxybenzyl)-8-(6-methoxy-2-methylpyridin-3-yl)-[1,2,4] triazolo[4,3-a]pyridin-5-amine] |
| 8.40 | 8.47 | 7.83 | COc1cccc(F)c1CNc1ccc(-c2cn(C)nc2C(F)F)c2nncn12 [Example 313, 8-(3-(difluoromethyl)-1-methyl-1H-pyrazol-4-yl)-N-(2-fluoro-6-methoxybenzyl)-[1,2,4]triazolo[4,3-a]pyridin-5-amine] |
| 8.11 | 8.11 | 7.67 | COc1cccc(F)c1CNc1ccc(-c2ccc(C)nc2C(F)F)c2nncn12 [Example 315, 8-(2-(difluoromethyl)-6-methylpyridin-3-yl)-N-(2-fluoro-6-methoxybenzyl)-[1,2,4]triazolo[4,3-a]pyridin-5-amine] |
| 7.76 | 7.80 | 6.67 | COc1cccc(F)c1CNc1ccc(-c2cnc(C)cc2C(F)F)c2nncn12 [Example 316, 8-(4-(difluoromethyl)-6-methylpyridin-3-yl)-N-(2-fluoro-6-methoxybenzyl)-[1,2,4]triazolo[4,3-a]pyridin-5-amine] |
| 8.15 | 8.04 | 7.49 | COc1ncc(-c2ccc(NCc3c(F)cccc3OC)n3cnnc23)c(C)n1 [Example 322, N-(2-fluoro-6-methoxybenzyl)-8-(2-methoxy-4-methylpyrimidin-5-yl)-[1,2,4]triazolo[4,3-a]pyridin-5-amine] |
| 7.53 | 7.58 | 7.15 | COc1cccc(F)c1CNc1ccc(-c2cc(Cl)cnc2C)c2nncn12 [Example 326, 8-(5-chloro-2-methylpyridin-3-yl)-N-(2-fluoro-6-methoxybenzyl)-[1,2,4]triazolo[4,3-a] pyridin-5-amine] |
